Patent US20220185822A1, “SELECTIVE LIGANDS OF HUMAN CONSTITUTIVE ANDROSTANE RECEPTOR” (USTAV ORGANICKE CHEMIE A BIOCHEMIE AV CR, V.V.I., priority 2019, published 2022)
“Also recorded” adds a separate entry of the source.

What was measured:
[1] = system: CYP2B6 mRNA (CAR target gene); assay: RT-qPCR of CYP2B6 mRNA in primary human hepatocytes; assay type: cell-based; conditions: 48 hours, 1 and 5 μM/L (FIG. 4)
Text: (§1) Delta-delta method and GAPDH/Gapdh or B2M/B2m housekeeping genes were used for relative quantification. Data are expressed as fold up-/down-regulation compare to vehicle-treated samples/mice.

human androgen receptor = target: T1, human androgen receptor (Homo sapiens, UniProt P10275); assay: Luciferase reporter assay with GAL4 construct with LBD, androgen receptor; assay type: cell-based; conditions: 10 μM/L
T1 construct: luciferase reporter assays with a GAL4 constructs with LBD of tested nuclear receptors; expressed in transfected cells

PPARγ = target: T2, PPARγ (Homo sapiens, UniProt P37231); assay: Luciferase reporter assay with GAL4 construct with LBD, PPARγ; assay type: cell-based; conditions: 10 μM/L
T2 construct: luciferase reporter assays with a GAL4 constructs with LBD of tested nuclear receptors; expressed in transfected cells

human PXR = target: T3, human PXR (Homo sapiens, UniProt O75469); assay: PXR-responsive luciferase reporter gene assay in HepG2 cells
T3 sequence (O75469 1-434): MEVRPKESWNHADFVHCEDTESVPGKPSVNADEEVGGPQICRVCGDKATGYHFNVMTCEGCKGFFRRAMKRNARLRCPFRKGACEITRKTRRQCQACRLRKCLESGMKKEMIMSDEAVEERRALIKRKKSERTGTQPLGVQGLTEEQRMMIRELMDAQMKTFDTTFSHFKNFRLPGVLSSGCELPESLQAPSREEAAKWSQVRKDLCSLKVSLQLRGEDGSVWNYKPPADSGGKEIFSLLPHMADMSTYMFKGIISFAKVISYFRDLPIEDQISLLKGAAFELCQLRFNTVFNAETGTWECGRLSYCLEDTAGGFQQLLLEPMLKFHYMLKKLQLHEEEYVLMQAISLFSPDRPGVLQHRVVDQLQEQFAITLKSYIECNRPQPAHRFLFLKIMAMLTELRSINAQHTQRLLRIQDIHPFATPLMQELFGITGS

[2] = system: Salmonella typhimurium strains TA 98, TA 100, TA 1535, TA 1537 and Escherichia coli WP2 uvrA strain; assay: Bacterial Reverse Mutation Test (OECD 471)
vitamin D receptor = target: T4, vitamin D receptor (Homo sapiens, UniProt P11473); assay: Luciferase reporter assay with GAL4 construct with LBD, vitamin D receptor; assay type: cell-based; conditions: 10 μM/L
T4 construct: luciferase reporter assays with a GAL4 constructs with LBD of tested nuclear receptors; expressed in transfected cells

estradion α receptor = target: T5, estradion α receptor (Homo sapiens, UniProt P03372); assay: Luciferase reporter assay with GAL4 construct with LBD, estradion α receptor; assay type: cell-based; conditions: 10 μM/L
T5 construct: luciferase reporter assays with a GAL4 constructs with LBD of tested nuclear receptors; expressed in transfected cells

[3] = target: T6, human potassium channel hERG (Homo sapiens, UniProt Q12809); assay: FluxOR II Green Potassium Ion Channel Assay with HEK293-hERG cells; assay type: cell-based; conditions: at 20 μM/L
T6 construct: expressed in transfected cells; host or cells: HEK293-hERG
Protocol: For compound of EXAMPLE 93, The FluxOR™ II Green Potassium Ion Channel Assay with HEK293-hERG cells (stably expressing human potassium channel hERG) seeded on Poly-D-Lysine-coated 384-well microplates (Corning, Cat. #356663) was used according to the manufacturer's instructions. hERG stimulation buffer containing thallium and potassium was added and the intracellular fluorescence was measured.

human CYP3A4 = target: T7, human CYP3A4 (Homo sapiens, UniProt P08684); assay: Commercial CYP450-Glo inhibition assay, CYP3A4; assay type: in vitro ADME
T7 construct: purchased Promega V8802

[4] = Pharmacokinetic studies in mice
glucocorticoid receptor = target: T8, glucocorticoid receptor (Homo sapiens, UniProt P04150); assay: Luciferase reporter assay with GAL4 construct with LBD, glucocorticoid receptor; assay type: cell-based; conditions: 10 μM/L
T8 construct: luciferase reporter assays with a GAL4 constructs with LBD of tested nuclear receptors; expressed in transfected cells

[5] = system: CYP2B6 mRNA in HepaRG KO CAR cells; assay: RT-qPCR of CYP2B6 mRNA in HepaRG KO CAR cells; assay type: cell-based, human; conditions: 24 h of treatment (FIG. 3)
Text: as §1

PPARα = target: T9, PPARα (Homo sapiens, UniProt Q07869); assay: Luciferase reporter assay with GAL4 construct with LBD, PPARα; assay type: cell-based; conditions: 10 μM/L
T9 construct: luciferase reporter assays with a GAL4 constructs with LBD of tested nuclear receptors; expressed in transfected cells

[6] = assay type: in vivo
Protocol: Livers were sampled 24 hours after the last application into liquid nitrogen. In case of i.p. Glucose Tolerance test (IPGTT), each mouse on chronic high fat diet received i.p. application of 20% glucose solution at the dose of lg glucose per kg b.w. Blood glucose concentration was analyzed with a glucometer from blood sampled from the tail. In case of i.p. Isulin Tolerance test (IPITT), mice received insulin administered via i.p. application in the dose of 0.75 mU/g b.w.

[7] = system: primary human hepatocytes; assay: Viability/cytotoxicity in primary human hepatocytes; assay type: cell-based; conditions: 48 h treatment
[8] = system: CYP3A4, CYP1A2, CYP2C9, CYP2C19, CYP2C8, CYP2D6, CYP2B6 (panel); assay: in vitro; conditions: both, human, pooled human liver microsomes
HepG2 cells = assay: Cytotoxicity, cell viability (MTS) in HepG2; assay type: cell-based; conditions: Homo sapiens, 48-h treatment, no significant effect at 30 μM/L
Protocol: Cell viability in HepG2 and COS-1 cells after a 48 h treatment with test compounds at a concentration from 1 up to 30 μM was determined using the modified formazan-based […] assay. […] Briefly, the cells were treated with the test compounds or vehicle alone (DMSO) for 48 h. At the end of the treatment, 20 μl of MTS reagent was added directly to each culture wells and further cultivated for 1.5 h. Finally, the absorbance of converted formazan was recorded at 490 nm by plate reader (BioTec Synergy 2. Winooski. Vt. USA). Vehicle (DMSO) and TritonX100 (0.9%; v/v) controls of cell viability were set to be 100% and 0%, respectively.

[9] = system: CAR target genes mRNAs (Cyp2b10, Cyp2c29, CYP3A4); assay: Single dose study in humanized PXR-CAR-CYP3A4/3A7 mice, liver RT-qPCR; assay type: in vivo; conditions: single p.o. 10 mg/kg, 24 hours (FIG. 5)
farnesoid X receptor = target: T10, farnesoid X receptor (Homo sapiens, UniProt Q96RI1); assay: Luciferase reporter assay with GAL4 construct with LBD, farnesoid X receptor; assay type: cell-based; conditions: 10 μM/L
T10 construct: luciferase reporter assays with a GAL4 constructs with LBD of tested nuclear receptors; expressed in transfected cells

[10] = 10 mg/kg b.w. by gavage for 4 weeks, 60% high-fat diet 8 weeks

T8 sequence (P04150 524-758 limits assumed): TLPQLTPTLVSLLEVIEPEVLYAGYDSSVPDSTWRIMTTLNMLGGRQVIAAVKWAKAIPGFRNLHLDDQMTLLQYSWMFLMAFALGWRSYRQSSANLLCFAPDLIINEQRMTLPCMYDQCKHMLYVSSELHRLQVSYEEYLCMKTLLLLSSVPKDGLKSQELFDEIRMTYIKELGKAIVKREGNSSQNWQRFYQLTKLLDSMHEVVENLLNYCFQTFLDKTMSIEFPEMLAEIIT
T2 sequence (P37231 238-503 limits assumed): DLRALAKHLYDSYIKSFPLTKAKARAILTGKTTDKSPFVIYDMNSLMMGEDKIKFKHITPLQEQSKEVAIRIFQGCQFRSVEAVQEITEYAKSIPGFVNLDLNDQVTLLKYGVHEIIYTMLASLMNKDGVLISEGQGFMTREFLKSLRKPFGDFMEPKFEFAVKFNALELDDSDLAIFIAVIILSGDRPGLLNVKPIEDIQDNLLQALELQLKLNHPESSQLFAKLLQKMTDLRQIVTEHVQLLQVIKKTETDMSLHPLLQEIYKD
T1 sequence (P10275 669-900 limits assumed): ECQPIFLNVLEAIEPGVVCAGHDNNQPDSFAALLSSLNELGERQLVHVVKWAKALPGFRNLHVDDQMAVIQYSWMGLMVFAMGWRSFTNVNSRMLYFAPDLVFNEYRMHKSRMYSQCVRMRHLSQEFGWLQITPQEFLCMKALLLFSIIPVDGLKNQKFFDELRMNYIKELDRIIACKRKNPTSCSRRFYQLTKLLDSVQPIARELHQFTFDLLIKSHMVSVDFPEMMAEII
T10 sequence (Q96RI1 262-486 limits assumed): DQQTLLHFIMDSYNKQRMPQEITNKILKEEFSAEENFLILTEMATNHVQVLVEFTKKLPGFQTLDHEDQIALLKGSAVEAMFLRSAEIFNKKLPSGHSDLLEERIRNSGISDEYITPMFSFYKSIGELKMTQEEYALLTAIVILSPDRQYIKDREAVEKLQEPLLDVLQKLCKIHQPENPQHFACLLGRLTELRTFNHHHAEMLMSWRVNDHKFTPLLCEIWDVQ
T6 sequence (Q12809 whole entry): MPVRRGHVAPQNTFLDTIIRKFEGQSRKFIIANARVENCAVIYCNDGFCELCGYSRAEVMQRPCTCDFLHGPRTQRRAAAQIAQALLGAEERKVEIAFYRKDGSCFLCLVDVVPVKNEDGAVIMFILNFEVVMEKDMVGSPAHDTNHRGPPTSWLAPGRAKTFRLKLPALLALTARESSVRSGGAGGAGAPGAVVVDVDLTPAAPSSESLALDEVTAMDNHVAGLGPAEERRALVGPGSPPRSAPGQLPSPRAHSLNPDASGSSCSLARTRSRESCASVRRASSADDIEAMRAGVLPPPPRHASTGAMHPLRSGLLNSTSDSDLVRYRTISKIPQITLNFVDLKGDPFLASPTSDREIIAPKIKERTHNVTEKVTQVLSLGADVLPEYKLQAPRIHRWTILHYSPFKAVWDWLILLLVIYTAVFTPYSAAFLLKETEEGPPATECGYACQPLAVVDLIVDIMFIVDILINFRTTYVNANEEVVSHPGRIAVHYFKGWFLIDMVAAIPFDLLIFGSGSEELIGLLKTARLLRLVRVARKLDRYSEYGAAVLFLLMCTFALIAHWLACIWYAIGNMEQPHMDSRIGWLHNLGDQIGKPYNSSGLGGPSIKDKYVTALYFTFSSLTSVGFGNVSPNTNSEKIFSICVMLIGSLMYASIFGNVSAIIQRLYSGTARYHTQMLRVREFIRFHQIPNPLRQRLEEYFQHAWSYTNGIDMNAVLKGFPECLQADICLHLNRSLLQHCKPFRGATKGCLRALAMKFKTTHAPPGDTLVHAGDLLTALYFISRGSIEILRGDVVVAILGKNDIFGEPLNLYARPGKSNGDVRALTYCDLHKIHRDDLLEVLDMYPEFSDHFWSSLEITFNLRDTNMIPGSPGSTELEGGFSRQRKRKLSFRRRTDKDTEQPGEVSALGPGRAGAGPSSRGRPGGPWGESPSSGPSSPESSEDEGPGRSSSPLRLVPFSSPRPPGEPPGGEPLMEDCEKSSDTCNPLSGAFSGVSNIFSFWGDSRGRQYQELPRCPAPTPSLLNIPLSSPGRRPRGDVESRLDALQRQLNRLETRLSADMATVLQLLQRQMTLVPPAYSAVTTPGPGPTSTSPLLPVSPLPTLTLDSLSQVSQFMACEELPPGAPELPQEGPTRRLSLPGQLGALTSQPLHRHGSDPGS
T4 sequence (P11473 127-423 limits assumed): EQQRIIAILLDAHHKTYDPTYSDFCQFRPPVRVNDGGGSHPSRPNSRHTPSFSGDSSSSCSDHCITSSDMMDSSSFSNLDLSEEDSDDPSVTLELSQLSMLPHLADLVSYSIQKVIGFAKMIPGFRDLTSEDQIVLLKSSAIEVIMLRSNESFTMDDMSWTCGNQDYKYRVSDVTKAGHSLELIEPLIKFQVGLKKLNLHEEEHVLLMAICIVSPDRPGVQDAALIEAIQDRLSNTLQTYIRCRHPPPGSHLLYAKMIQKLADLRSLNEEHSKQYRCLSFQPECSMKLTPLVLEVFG
T5 sequence (P03372 311-547 limits assumed): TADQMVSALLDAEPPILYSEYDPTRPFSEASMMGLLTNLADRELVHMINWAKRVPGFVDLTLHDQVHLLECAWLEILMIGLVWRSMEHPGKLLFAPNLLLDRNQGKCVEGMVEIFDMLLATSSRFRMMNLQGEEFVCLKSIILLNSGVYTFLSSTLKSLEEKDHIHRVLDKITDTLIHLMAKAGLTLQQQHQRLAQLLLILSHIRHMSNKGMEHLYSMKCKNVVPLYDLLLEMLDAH
T9 sequence (Q07869 239-466 limits assumed): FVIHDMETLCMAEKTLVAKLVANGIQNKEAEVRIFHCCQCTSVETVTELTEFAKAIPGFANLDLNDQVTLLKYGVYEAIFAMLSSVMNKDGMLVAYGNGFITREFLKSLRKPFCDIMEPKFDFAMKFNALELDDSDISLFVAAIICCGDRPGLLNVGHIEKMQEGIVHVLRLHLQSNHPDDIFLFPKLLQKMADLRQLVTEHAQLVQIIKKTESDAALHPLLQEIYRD
T7 sequence (P08684 whole entry): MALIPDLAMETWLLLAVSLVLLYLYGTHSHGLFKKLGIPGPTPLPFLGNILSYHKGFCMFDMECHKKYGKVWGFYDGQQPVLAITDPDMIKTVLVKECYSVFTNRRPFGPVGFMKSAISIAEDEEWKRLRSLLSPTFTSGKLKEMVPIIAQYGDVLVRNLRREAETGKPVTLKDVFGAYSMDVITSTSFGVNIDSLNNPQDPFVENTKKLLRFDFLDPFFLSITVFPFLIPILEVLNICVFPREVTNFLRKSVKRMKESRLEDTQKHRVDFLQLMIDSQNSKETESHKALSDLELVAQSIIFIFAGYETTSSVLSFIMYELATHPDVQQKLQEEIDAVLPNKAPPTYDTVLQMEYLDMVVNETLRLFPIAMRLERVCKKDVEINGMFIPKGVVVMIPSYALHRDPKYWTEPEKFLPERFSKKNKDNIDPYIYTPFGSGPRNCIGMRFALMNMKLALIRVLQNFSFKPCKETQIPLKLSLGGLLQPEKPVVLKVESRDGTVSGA

Question: For `NC(=O)c1cc(Cn2cc(-c3c(-c4ccc(Cl)cc4)nc4cc(F)ccn34)nn2)ccc1Cl` [Example 93, 2-Chloro-5-((4-(2-(4-chlorophenyl)-7-fluoroimidazo[1,2-a]pyridin-3-yl)-1H-1,2,3-triazol-1-yl)methyl)benzamide], which “CYP2B6 mRNA in primary human hepatocytes” value [1] is on record?
Answer: up-regulates

Question: And the “activation of human androgen receptor” value (human androgen receptor)?
Answer: do not activate

Question: What about the “activation of PPARγ” value (PPARγ) of the same compound?
Answer: do not activate

Question: And the “PXR % of RIF activity (10 μM) at 10 μM” value (human PXR; tested at 10 μM, HepG2, 24 h)?
Answer: No activation

Question: And the “selectivity and specificity for human CAR in comparison with CITCO (FIG. 2)” value (human PXR; versus PXR)?
Answer: highly selective and specific for human CAR

Question: And the “mutagenicity in Bacterial Reverse Mutation Test” value ([2]; all indicator strains, with and without metabolic activation)?
Answer: non-mutagenic

Question: What about the “number of revertants compared to solvent controls (Rt/Rc)” value ([2]; with or without S9 fraction) of the same compound?
Answer: < 2

Question: And the “activation of vitamin D receptor” value (vitamin D receptor)?
Answer: do not activate

Question: What about the “activation of estradion α receptor” value (estradion α receptor) of the same compound?
Answer: do not activate

Question: What about the “interference with hERG activity (FluxOR, HEK293-hERG)” value [3] of the same compound?
Answer: do not interfere with hERG activity

Question: What about the IC50 (human CYP3A4) of the same compound?
Answer: > 10 µM

Question: What about the “Bioavailability (F) based on AUCp.o./AUCi.p. ratio” value ([4]; 10 mg/kg, C57BL/6N mice) of the same compound?
Answer: 98.6%

Question: And the “delivery into the liver and bile” value ([4]; FIG. 6)?
Answer: excellent delivery into the liver and bile

Question: And the “activation of glucocorticoid receptor” value (glucocorticoid receptor)?
Answer: do not activate

Question: What about the “CYP2B6 mRNA in HepaRG KO CAR cells” value [5] of the same compound?
Answer: not in HepaRG KO CAR cells

Question: And the “activation of PPARα” value (PPARα)?
Answer: do not activate

Question: What about the “insulin sensitivity in IPGTT and IPITT” value [6, 10] of the same compound?
Answer: stimulatory effect on insulin sensitivity; also recorded: alleviates insuline resistance and stimulates the effect of insuline

Question: And the “liver hypertrophy (liver-to-body weight ratio)” value [6, 10]?
Answer: does not stimulate significantly liver hypertrophy

Question: What about the “Mki67 mRNA in mouse liver” value ([6]; 10 mg/kg, 4 weeks) of the same compound?
Answer: did not significantly up-regulate

Question: And the “RNA level of Fasn in mouse liver” value ([6]; 10 mg/kg, 4 weeks)?
Answer: significantly decrease

Question: What about the “RNA level of Scd1 in mouse liver” value ([6]; 10 mg/kg, 4 weeks) of the same compound?
Answer: significantly decrease

Question: And the “hepatotoxicity (ALT, AST, ALP, LDH biochemical markers)” value ([6]; 10 mg/kg, 4 weeks)?
Answer: does not display hepatotoxicity

Question: And the “plasma LDL” value ([6]; 10 mg/kg, 4 weeks)?
Answer: has an effect; also recorded: decreases

Question: What about the plasma cholesterol ([6]; 10 mg/kg, 4 weeks) of the same compound?
Answer: has an effect; also recorded: decreases

Question: What about the body weight ([6]; 10 mg/kg, after 4 weeks of application) of the same compound?
Answer: decrease body weight; also recorded: reduces the body weight

Question: What about the “viability/cytotoxicity in primary human hepatocytes” value [7] of the same compound?
Answer: no effect on viability/cytotoxicity

Question: What about the IC50 [8] of the same compound?
Answer: > 10 µM

Question: And the IC50 (HepG2 cells)?
Answer: > 30 µM

Question: What about the “CYP3A4 mRNA in the liver” value [9] of the same compound?
Answer: up-regulate

Question: What about the “Cyp2b10 mRNA in the liver” value [9] of the same compound?
Answer: up-regulate

Question: And the “Cyp2c29 mRNA in the liver” value [9]?
Answer: up-regulate

Question: And the “activation of farnesoid X receptor” value (farnesoid X receptor)?
Answer: do not activate
